Results as given in US20250280826A1, “PLANT GROWTH PROMOTER” (KAO CORPORATION, priority 2022, published 2025).

Assay type: physicochemical
Conditions: in 100 μL of isobutyl alcohol
Description: The amount of BHT dissolved in 100 μL of isobutyl alcohol was changed. […] For other solvents, solubility was similarly confirmed at a ratio of BHT:solvent=1:4. […] The reagents used were those manufactured by FUJIFILM Wako Pure Chemical Corporation.

Substance: dibutylhydroxytoluene [BHT]
- amount of BHT uniformly dissolved: up to 25 mg
